“And” between values parts separate entries of the source, which are not always exact repeats. Equal values may be shown once.
Tested on: 292921-168-R-J2-PDC KRAS tumor spheroid viability
Assay: Anticancer human tumor 292921-168-R-J2-PDC patient-derived pancreatic carcinoma cell line growth inhibition [KRAS2]
Conditions: spheroids with HUVEC and MSC; for viability, T/C: stronger effect = lower value
Procedure, shortened: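 KRAS-mutant tumor cells were grown as spheroids with HUVEC endothelial cells and human MSCs as stroma. Targeted agents were tested alone and with KRAS pathway inhibitors. Doses started at or near clinical Cmax, or 10 microM, descending half-log.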

[1] = curve of first compound, second compound 0.1 µM
[2] = curve of first compound, second compound 0.316 µM
[3] = curve of first compound, second compound 1 µM
[4] = curve of first compound, second compound 3.16 µM
[5] = second compound 0.1 µM, first compound 0.01 µM
[6] = second compound 0.1 µM, first compound 0.0316 µM
[7] = second compound 0.316 µM, first compound 0.01 µM
[8] = second compound 0.316 µM, first compound 0.0316 µM
[9] = second compound 1 µM, first compound 0.01 µM
[10] = second compound 1 µM, first compound 0.0316 µM
[11] = second compound 3.16 µM, first compound 0.01 µM
[12] = second compound 3.16 µM, first compound 0.0316 µM
[13] = curve of first compound, second compound 10 µM
[14] = second compound 0.1 µM, first compound 0.1 µM
[15] = second compound 0.1 µM, first compound 0.316 µM
[16] = second compound 0.1 µM, first compound 1 µM
[17] = second compound 0.1 µM, first compound 3.16 µM
[18] = second compound 0.1 µM, first compound 10 µM
[19] = second compound 0.316 µM, first compound 0.1 µM
[20] = second compound 0.316 µM, first compound 0.316 µM
[21] = second compound 0.316 µM, first compound 1 µM
[22] = second compound 0.316 µM, first compound 3.16 µM
[23] = second compound 0.316 µM, first compound 10 µM
[24] = second compound 1 µM, first compound 0.1 µM
[25] = second compound 1 µM, first compound 0.316 µM
[26] = second compound 1 µM, first compound 1 µM
[27] = second compound 1 µM, first compound 3.16 µM
[28] = second compound 1 µM, first compound 10 µM
[29] = second compound 3.16 µM, first compound 0.1 µM
[30] = second compound 3.16 µM, first compound 0.316 µM
[31] = second compound 3.16 µM, first compound 1 µM
[32] = second compound 3.16 µM, first compound 3.16 µM
[33] = second compound 3.16 µM, first compound 10 µM
[34] = second compound 10 µM, first compound 0.0316 µM
[35] = second compound 10 µM, first compound 0.1 µM
[36] = second compound 10 µM, first compound 0.316 µM
[37] = second compound 10 µM, first compound 1 µM
[38] = second compound 10 µM, first compound 3.16 µM
[39] = second compound 10 µM, first compound 10 µM
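Note: drug exposure lasted seven days after spheroids formed for three days.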
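Throughout, for viability, T/C: percent of DMSO vehicle control viability which is 100%.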

Structure (SMILES): CC(=O)Nc1cccc(-n2c(=O)n(C3CC3)c(=O)c3c(Nc4ccc(I)cc4F)n(C)c(=O)c(C)c32)c1 + C=CC(=O)N1CCN(c2nc(OCC3CCCN3C)nc3c2CCN(c2cccc4cccc(C)c24)C3)CC1CC#N
- IC50 (curve of first compound, second compound 0.0316 µM): 0.281 nM
- IC50 [1]: 0.238 nM
- IC50 [2]: 0.145 nM
- IC50 [3]: < 0.1 nM
- IC50 [4]: < 0.1 nM
- viability, T/C (second compound 0.0316 µM, first compound 0.0001 µM): 78.2%
- viability, T/C (second compound 0.0316 µM, first compound 0.000316 µM): 46.6%
- viability, T/C (second compound 0.0316 µM, first compound 0.001 µM): 27.2%
- viability, T/C (second compound 0.0316 µM, first compound 0.00316 µM): 18.6%
- viability, T/C (second compound 0.0316 µM, first compound 0.01 µM): 11.9%
- viability, T/C (second compound 0.0316 µM, first compound 0.0316 µM): 8.52%
- viability, T/C (second compound 0.1 µM, first compound 0.0001 µM): 63.3%
- viability, T/C (second compound 0.1 µM, first compound 0.000316 µM): 45.9%
- viability, T/C (second compound 0.1 µM, first compound 0.001 µM): 29.1%
- viability, T/C (second compound 0.1 µM, first compound 0.00316 µM): 17.6%
- viability, T/C [5]: 12.4%
- viability, T/C [6]: 7.9%
- viability, T/C (second compound 0.316 µM, first compound 0.0001 µM): 56.5%
- viability, T/C (second compound 0.316 µM, first compound 0.000316 µM): 36.5%
- viability, T/C (second compound 0.316 µM, first compound 0.001 µM): 23%
- viability, T/C (second compound 0.316 µM, first compound 0.00316 µM): 13.5%
- viability, T/C [7]: 10.3%
- viability, T/C [8]: 7.06%
- viability, T/C (second compound 1 µM, first compound 0.0001 µM): 42.7%
- viability, T/C (second compound 1 µM, first compound 0.000316 µM): 21.9%
- viability, T/C (second compound 1 µM, first compound 0.001 µM): 13.3%
- viability, T/C (second compound 1 µM, first compound 0.00316 µM): 9.17%
- viability, T/C [9]: 6.87%
- viability, T/C [10]: 5.25%
- viability, T/C (second compound 3.16 µM, first compound 0.0001 µM): 0.18%
- viability, T/C (second compound 3.16 µM, first compound 0.000316 µM): 0.2%
- viability, T/C (second compound 3.16 µM, first compound 0.001 µM): 0.11%
- viability, T/C (second compound 3.16 µM, first compound 0.00316 µM): 0.27%
- viability, T/C [11]: 0.11%
- viability, T/C [12]: 0.17%

Structure (SMILES): O=C(c1cc(Cc2n[nH]c(=O)c3ccccc23)ccc1F)N1CCN(C(=O)C2CC2)CC1 + C=CC(=O)N1CCN(c2nc(=O)n(-c3c(C)ccnc3C(C)C)c3nc(-c4c(O)cccc4F)c(F)cc23)C(C)C1
- IC50 [1]: 7630 nM
- IC50 [2]: 8380 nM
- IC50 [3]: 6670 nM
- IC50 [4]: 1020 nM
- IC50 [13]: < 31.6 nM
- viability, T/C [6]: 97.8%
- viability, T/C [14]: 87%
- viability, T/C [15]: 88%
- viability, T/C [16]: 84.1%
- viability, T/C [17]: 76.8%
- viability, T/C [18]: 41.9%
- viability, T/C [8]: 90.8%
- viability, T/C [19]: 82.1%
- viability, T/C [20]: 79.4%
- viability, T/C [21]: 85.9%
- viability, T/C [22]: 75.7%
- viability, T/C [23]: 45.1%
- viability, T/C [10]: 77%
- viability, T/C [24]: 72.3%
- viability, T/C [25]: 76.2%
- viability, T/C [26]: 84.2%
- viability, T/C [27]: 62.1%
- viability, T/C [28]: 41%
- viability, T/C [12]: 64%
- viability, T/C [29]: 59.5%
- viability, T/C [30]: 56.7%
- viability, T/C [31]: 47.5%
- viability, T/C [32]: 46.7%
- viability, T/C [33]: 38.2%
- viability, T/C [34]: 27.3%
- viability, T/C [35]: 25.9%
- viability, T/C [36]: 28.2%
- viability, T/C [37]: 28.9%
- viability, T/C [38]: 32%
- viability, T/C [39]: 29.1%

Structure (SMILES): COc1cc2nccc(Oc3ccc(NC(=O)C4(C(=O)Nc5ccc(F)cc5)CC4)cc3)c2cc1OC + CC1OCC2(CCN(c3cnc(Sc4ccnc(N)c4Cl)c(N)n3)CC2)C1N
- IC50 [1]: 1610 nM
- IC50 [2]: 569 nM
- IC50 [3]: < 31.6 nM
- IC50 [4]: < 31.6 nM
- IC50 [13]: < 31.6 nM
- viability, T/C [6]: 81%
- viability, T/C [14]: 82.6%
- viability, T/C [15]: 72%
- viability, T/C [16]: 65.9%
- viability, T/C [17]: 28.9%
- viability, T/C [18]: 19%
- viability, T/C [8]: 60.9%
- viability, T/C [19]: 61.4%
- viability, T/C [20]: 54.6%
- viability, T/C [21]: 45.1%
- viability, T/C [22]: 25.6%
- viability, T/C [23]: 17.1%
- viability, T/C [10]: 42.2%
- viability, T/C [24]: 45.7%
- viability, T/C [25]: 26.1%
- viability, T/C [26]: 33%
- viability, T/C [27]: 22.5%
- viability, T/C [28]: 13%
- viability, T/C [12]: 35.4%
- viability, T/C [29]: 33.5%
- viability, T/C [30]: 35.5%
- viability, T/C [31]: 26.8%
- viability, T/C [32]: 17.8%
- viability, T/C [33]: 12%
- viability, T/C [34]: 31.7%
- viability, T/C [35]: 30.2%
- viability, T/C [36]: 31.7%
- viability, T/C [37]: 24.9%
- viability, T/C [38]: 14.3%
- viability, T/C [39]: 9.5%

Structure (SMILES): CCN1CCN(Cc2ccc(Nc3ncc(F)c(-c4cc(F)c5nc(C)n(C(C)C)c5c4)n3)nc2)CC1
- viability, T/C (compound 0.00316 µM): 88.5% and 85.8% and 83.2%
- viability, T/C (compound 0.01 µM): 72.1% and 73% and 63.1%
- viability, T/C (compound 0.0316 µM): 57.3% and 49.2% and 53%
- viability, T/C (compound 0.1 µM): 36.8% and 43.1% and 36.2%
- viability, T/C (compound 0.316 µM): 28.3% and 34.9% and 27.1%
- viability, T/C (compound 1 µM): 17.8% and 23.3% and 20.6%
- IC50 (curve of compound): 46.4 nM and 47.4 nM and 32.1 nM

Structure (SMILES): CC1COCCN1c1cc(-c2ccnn2C)c2ccnc(-c3ccn[nH]3)c2n1 (configuration not stated) + COc1cc2nc(C)nc(NC(C)c3cc(N)cc(C(F)(F)F)c3)c2cc1OC1CCOC1
- IC50 [1]: < 10 nM
- IC50 [2]: < 10 nM
- IC50 [3]: < 10 nM
- IC50 [4]: < 10 nM
- IC50 [13]: < 10 nM
- viability, T/C [5]: 30.3%
- viability, T/C [6]: 14.4%
- viability, T/C [14]: 11.1%
- viability, T/C [15]: 10.6%
- viability, T/C [16]: 12.1%
- viability, T/C [17]: 14.1%
- viability, T/C [7]: 25.2%
- viability, T/C [8]: 12.9%
- viability, T/C [19]: 10.1%
- viability, T/C [20]: 9.13%
- viability, T/C [21]: 10.8%
- viability, T/C [22]: 12.5%
- viability, T/C [9]: 25.6%
- viability, T/C [10]: 11.6%
- viability, T/C [24]: 9.3%
- viability, T/C [25]: 8.99%
- viability, T/C [26]: 11.2%
- viability, T/C [27]: 13.2%
- viability, T/C [11]: 19.4%
- viability, T/C [12]: 12.1%
- viability, T/C [29]: 9.36%
- viability, T/C [30]: 8.32%
- viability, T/C [31]: 10.4%
- viability, T/C [32]: 11.8%
- viability, T/C (second compound 10 µM, first compound 0.01 µM): 12.9%
- viability, T/C [34]: 12.5%
- viability, T/C [35]: 9.42%
- viability, T/C [36]: 8.21%
- viability, T/C [37]: 8.78%
- viability, T/C [38]: 7.99%
